In publication PMC4685510, “A Cell Biologist’s Field Guide to Aurora Kinase Inhibitors” (Frontiers in Oncology, 2015):
Like-named read-outs stand apart in the source and are kept apart here.

Assays:
Assay in all cases: biochemical
Assay type in all cases: biochemical
[1] = molecular target: T1, 363 human kinases (including Aurora A/B/C) (Homo sapiens, UniProt O94806); conditions: PKCnu/PRKD3
T1 sequence (O94806 1-890): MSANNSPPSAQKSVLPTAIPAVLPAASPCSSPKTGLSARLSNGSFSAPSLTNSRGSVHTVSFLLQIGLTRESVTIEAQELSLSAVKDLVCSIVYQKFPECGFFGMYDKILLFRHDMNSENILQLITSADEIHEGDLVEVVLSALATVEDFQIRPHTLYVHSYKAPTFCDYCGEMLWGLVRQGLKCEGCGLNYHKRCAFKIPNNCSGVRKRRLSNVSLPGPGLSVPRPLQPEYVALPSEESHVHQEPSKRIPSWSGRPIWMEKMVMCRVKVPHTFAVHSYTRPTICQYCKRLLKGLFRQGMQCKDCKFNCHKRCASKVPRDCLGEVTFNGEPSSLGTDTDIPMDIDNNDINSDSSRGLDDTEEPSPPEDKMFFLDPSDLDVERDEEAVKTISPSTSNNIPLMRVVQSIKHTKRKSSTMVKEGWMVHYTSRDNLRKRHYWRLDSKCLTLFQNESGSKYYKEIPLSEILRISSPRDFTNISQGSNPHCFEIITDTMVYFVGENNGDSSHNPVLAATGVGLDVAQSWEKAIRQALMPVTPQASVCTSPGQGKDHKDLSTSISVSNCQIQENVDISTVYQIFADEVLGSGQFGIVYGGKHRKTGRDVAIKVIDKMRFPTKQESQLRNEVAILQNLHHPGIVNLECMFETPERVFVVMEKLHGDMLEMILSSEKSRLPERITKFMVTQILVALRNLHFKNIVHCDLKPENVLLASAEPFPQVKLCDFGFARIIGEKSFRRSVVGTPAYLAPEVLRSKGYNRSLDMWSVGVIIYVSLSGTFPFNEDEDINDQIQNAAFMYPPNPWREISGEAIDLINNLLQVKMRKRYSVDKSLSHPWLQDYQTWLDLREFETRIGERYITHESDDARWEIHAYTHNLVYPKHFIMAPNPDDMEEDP
From the text: (§1) However, the Aurora A/B selectivity ratios derived from our in vitro and in vivo data can be compared to prioritize inhibitors.

[2] = molecular target: 363 human kinases (including Aurora A/B/C) (Homo sapiens, UniProt P15056); conditions: BRAF, [ATP] 10 µM
From the text: as §1

[3] = molecular target: 363 human kinases (including Aurora A/B/C) (Homo sapiens, UniProt P17948); conditions: FLT1/VEGFR1, [ATP] 2.5 µM
From the text: as §1

[4] = molecular target: 363 human kinases (including Aurora A/B/C) (Homo sapiens, UniProt Q9BUB5); conditions: MNK1
From the text: as §1

[5] = molecular target: 363 human kinases (including Aurora A/B/C) (Homo sapiens, UniProt O96017); conditions: CHK2, [ATP] 20 µM, 500 nM; for remaining activity at 0.5 µM: read-out: % Enzyme Activity (relative to DMSO controls)
From the text: as §1

[6] = molecular target: 363 human kinases (including Aurora A/B/C) (Homo sapiens, UniProt Q16620); conditions: TRKB
From the text: as §1

[7] = molecular target: 363 human kinases (including Aurora A/B/C) (Homo sapiens, UniProt Q14680); conditions: MELK
From the text: as §1

[8] = molecular target: 363 human kinases (including Aurora A/B/C) (Homo sapiens, UniProt P45983); conditions: JNK1
From the text: as §1

[9] = molecular target: 363 human kinases (including Aurora A/B/C) (Homo sapiens, UniProt P24941); conditions: for remaining activity at 0.1 µM: 100 nM; for remaining activity at 0.1 µM / remaining activity at 0.5 µM: read-out: % Enzyme Activity (relative to DMSO controls); for remaining activity at 0.5 µM / % Enzyme Activity (relative to DMSO controls): 500 nM
From the text: as §1

[10] = molecular target: 363 human kinases (including Aurora A/B/C) (Homo sapiens, UniProt P51957); conditions: NEK4
From the text: as §1

[11] = molecular target: 363 human kinases (including Aurora A/B/C) (Homo sapiens, UniProt P06241); conditions: FYN
From the text: as §1

[12] = molecular target: 363 human kinases (including Aurora A/B/C) (Homo sapiens, UniProt P27448); conditions: MARK3
From the text: as §1

[13] = molecular target: 363 human kinases (including Aurora A/B/C) (Homo sapiens, UniProt Q04759); conditions: PKCtheta
From the text: as §1

[14] = molecular target: 363 human kinases (including Aurora A/B/C) (Homo sapiens, UniProt P06239); conditions: LCK
From the text: as §1

[15] = molecular target: T2, 363 human kinases (including Aurora A/B/C) (Homo sapiens, UniProt Q8N752); conditions: CK1a1L, [ATP] 30 µM
T2 sequence (Q8N752 1-337): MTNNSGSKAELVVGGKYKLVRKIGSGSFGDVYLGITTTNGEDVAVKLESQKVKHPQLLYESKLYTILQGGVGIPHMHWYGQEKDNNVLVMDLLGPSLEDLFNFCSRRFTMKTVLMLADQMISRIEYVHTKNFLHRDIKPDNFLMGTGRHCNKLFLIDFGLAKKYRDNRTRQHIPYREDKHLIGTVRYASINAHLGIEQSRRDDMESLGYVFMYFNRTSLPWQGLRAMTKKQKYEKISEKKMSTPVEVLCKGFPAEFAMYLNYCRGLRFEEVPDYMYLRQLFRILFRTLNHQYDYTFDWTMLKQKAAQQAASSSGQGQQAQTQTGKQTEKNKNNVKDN
From the text: as §1

[16] = molecular target: 363 human kinases (including Aurora A/B/C) (Homo sapiens, UniProt Q02750); conditions: MEK1
From the text: as §1

[17] = 100 nM, read-out: % Enzyme Activity (relative to DMSO controls)
[18] = 500 nM, read-out: % Enzyme Activity (relative to DMSO controls)

Chain of 363 human kinases (including Aurora A/B/C) (Homo sapiens, UniProt P17948) (P17948 27-1338): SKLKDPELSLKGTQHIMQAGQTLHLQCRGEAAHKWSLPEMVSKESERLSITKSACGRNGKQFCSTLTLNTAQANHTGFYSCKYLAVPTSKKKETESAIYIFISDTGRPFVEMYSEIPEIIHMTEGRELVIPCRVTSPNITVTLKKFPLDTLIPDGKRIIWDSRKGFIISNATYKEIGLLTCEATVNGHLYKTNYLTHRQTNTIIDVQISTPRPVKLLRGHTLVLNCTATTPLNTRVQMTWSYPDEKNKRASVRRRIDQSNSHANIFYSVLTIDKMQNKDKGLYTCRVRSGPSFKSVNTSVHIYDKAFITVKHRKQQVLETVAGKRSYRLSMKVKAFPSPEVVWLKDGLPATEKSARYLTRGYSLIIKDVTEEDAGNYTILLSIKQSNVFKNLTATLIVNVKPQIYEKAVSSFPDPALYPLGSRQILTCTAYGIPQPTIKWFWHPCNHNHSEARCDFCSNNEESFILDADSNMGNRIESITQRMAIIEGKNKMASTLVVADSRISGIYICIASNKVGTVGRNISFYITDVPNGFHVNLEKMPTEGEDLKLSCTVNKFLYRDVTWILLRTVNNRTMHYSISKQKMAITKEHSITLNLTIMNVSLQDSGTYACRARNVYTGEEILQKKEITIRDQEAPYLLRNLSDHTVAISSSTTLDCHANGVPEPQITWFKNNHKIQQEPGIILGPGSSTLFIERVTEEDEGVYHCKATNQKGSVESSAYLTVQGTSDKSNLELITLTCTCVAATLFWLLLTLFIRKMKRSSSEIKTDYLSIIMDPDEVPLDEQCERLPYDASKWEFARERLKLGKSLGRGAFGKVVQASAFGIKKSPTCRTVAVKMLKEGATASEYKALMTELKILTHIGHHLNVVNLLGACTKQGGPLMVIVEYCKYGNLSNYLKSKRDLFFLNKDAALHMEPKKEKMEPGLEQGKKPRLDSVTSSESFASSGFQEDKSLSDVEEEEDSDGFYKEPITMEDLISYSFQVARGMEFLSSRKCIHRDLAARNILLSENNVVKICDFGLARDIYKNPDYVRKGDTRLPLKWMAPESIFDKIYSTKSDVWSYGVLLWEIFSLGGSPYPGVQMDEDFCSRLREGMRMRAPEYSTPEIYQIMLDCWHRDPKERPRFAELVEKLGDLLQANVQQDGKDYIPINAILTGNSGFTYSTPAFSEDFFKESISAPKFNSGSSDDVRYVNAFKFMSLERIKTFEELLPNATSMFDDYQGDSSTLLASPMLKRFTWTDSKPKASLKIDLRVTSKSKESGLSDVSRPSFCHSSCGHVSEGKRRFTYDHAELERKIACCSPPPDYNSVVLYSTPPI
Chain of 363 human kinases (including Aurora A/B/C) (Homo sapiens, UniProt P06241) (P06241 whole entry): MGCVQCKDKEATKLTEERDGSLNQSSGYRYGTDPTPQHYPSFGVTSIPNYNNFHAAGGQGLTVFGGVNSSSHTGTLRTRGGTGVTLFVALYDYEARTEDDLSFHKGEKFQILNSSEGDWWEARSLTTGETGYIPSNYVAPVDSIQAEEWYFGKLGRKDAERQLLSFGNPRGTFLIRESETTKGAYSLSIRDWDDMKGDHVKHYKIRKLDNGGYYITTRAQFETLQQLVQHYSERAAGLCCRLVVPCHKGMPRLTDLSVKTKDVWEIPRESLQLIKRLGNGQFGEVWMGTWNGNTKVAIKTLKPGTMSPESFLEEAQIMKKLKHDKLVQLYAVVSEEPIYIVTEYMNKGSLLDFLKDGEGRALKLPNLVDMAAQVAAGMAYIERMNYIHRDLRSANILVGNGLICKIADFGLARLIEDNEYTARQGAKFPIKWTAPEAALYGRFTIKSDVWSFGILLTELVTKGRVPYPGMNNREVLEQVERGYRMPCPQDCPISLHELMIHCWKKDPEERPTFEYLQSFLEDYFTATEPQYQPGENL
Chain of 363 human kinases (including Aurora A/B/C) (Homo sapiens, UniProt P45983) (P45983 whole entry): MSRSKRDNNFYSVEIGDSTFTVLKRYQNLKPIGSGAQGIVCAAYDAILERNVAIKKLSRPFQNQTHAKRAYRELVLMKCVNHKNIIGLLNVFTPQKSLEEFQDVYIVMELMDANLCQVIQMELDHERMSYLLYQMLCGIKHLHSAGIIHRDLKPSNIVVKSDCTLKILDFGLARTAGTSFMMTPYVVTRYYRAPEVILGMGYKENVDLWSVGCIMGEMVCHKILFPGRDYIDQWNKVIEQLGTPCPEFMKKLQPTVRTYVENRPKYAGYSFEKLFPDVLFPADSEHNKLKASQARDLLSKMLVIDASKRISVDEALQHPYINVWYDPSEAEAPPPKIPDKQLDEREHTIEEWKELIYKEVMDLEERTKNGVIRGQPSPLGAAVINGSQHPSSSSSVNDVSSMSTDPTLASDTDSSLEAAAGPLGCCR
Chain of 363 human kinases (including Aurora A/B/C) (Homo sapiens, UniProt Q02750) (Q02750 whole entry): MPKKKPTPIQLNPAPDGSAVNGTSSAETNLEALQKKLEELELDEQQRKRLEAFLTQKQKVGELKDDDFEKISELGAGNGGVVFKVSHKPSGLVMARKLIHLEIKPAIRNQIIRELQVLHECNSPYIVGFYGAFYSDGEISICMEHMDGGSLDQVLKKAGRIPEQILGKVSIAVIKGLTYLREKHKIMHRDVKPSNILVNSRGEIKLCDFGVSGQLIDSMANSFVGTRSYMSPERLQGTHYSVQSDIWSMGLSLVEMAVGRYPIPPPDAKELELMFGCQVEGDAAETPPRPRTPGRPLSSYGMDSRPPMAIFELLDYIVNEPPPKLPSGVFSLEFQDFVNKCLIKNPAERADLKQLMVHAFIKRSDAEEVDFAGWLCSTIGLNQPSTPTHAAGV
Chain of 363 human kinases (including Aurora A/B/C) (Homo sapiens, UniProt Q9BUB5) (Q9BUB5 whole entry): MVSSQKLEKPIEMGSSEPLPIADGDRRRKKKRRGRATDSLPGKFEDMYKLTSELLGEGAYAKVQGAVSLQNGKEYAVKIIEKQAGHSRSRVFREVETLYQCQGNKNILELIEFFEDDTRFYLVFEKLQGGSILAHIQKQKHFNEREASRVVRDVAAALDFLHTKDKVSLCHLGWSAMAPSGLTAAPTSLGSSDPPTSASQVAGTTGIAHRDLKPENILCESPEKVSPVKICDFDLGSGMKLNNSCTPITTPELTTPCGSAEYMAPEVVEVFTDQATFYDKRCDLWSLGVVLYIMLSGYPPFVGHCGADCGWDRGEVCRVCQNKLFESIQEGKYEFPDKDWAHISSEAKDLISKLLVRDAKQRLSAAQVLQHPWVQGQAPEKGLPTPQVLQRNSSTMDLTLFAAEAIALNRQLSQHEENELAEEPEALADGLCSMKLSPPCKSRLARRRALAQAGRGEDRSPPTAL
Chain of 363 human kinases (including Aurora A/B/C) (Homo sapiens, UniProt O96017) (O96017 whole entry): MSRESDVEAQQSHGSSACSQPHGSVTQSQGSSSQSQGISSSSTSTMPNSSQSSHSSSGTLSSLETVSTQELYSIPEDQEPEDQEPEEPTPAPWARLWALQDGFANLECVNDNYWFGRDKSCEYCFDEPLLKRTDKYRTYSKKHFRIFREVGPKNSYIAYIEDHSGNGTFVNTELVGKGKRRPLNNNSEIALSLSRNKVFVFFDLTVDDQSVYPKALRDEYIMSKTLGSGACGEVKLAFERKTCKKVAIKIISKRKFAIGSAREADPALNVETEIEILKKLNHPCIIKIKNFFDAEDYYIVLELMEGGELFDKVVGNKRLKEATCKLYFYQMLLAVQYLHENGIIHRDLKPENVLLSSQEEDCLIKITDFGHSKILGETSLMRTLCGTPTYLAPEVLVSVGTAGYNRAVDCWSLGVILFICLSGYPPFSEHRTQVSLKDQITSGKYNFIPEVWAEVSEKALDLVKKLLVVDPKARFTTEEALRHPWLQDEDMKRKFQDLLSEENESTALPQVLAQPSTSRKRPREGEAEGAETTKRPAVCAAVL
Chain of 363 human kinases (including Aurora A/B/C) (Homo sapiens, UniProt P15056) (P15056 whole entry): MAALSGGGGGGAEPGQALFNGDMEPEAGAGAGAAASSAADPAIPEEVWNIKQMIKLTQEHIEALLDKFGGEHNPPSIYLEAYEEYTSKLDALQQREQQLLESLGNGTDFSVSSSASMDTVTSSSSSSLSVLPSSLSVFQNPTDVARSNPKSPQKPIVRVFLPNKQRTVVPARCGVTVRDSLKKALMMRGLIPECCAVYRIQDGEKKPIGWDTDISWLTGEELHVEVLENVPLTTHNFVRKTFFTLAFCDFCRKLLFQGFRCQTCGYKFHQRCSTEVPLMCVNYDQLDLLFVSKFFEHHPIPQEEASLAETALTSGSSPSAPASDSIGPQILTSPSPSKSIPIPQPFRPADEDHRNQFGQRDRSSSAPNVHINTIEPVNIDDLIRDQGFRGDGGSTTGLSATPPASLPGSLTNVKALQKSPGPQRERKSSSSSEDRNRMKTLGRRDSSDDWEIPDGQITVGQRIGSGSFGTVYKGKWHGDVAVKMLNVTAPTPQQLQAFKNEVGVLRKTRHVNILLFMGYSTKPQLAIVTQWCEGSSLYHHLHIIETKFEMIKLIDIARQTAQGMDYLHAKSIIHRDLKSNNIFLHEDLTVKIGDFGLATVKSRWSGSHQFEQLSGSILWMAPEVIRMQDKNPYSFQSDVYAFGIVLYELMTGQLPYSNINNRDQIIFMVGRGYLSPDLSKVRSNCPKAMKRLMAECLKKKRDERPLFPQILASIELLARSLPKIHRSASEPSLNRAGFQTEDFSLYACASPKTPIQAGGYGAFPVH
Chain of 363 human kinases (including Aurora A/B/C) (Homo sapiens, UniProt P06239) (P06239 whole entry): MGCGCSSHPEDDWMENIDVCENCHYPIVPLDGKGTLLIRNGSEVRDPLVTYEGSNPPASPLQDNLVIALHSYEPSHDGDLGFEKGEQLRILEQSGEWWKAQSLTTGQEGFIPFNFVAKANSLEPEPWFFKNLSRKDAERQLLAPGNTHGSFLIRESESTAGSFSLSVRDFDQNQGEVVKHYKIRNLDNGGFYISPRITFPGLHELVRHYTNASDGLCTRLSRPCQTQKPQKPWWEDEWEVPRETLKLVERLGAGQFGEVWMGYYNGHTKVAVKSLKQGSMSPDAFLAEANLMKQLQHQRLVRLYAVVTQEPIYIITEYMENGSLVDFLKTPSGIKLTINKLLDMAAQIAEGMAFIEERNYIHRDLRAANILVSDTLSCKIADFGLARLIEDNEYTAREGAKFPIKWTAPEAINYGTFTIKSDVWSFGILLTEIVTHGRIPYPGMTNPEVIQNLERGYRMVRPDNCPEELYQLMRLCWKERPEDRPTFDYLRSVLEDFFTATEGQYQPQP

## O=C(O)[C@]1(Cc2cccc(Nc3nccs3)n2)CC[C@@H](Oc2cccc(Cl)c2F)CC1 [MK-5108]
[1]; [17]
  remaining activity at 0.1 µM: 97.1%
[1]; [18]
  remaining activity at 0.5 µM: 87.9%
[2]; [17]
  remaining activity at 0.1 µM: 103%
[2]; [18]
  remaining activity at 0.5 µM: 94.7%
[3]; [17]
  remaining activity at 0.1 µM: 58.4%
[3]; [18]
  remaining activity at 0.5 µM: 29.5%
[4]; [17]
  remaining activity at 0.1 µM: 105%
[4]; [18]
  remaining activity at 0.5 µM: 116%
[5]
  remaining activity at 0.5 µM: 56.2%
[6]; [17]
  remaining activity at 0.1 µM: 1.79%
[7]; [17]
  remaining activity at 0.1 µM: 109%
[7]; [18]
  remaining activity at 0.5 µM: 112%
[8]; [17]
  remaining activity at 0.1 µM: 61.8%
[8]; [18]
  remaining activity at 0.5 µM: 29.3%
[9]; CDK2/Cyclin A1, [ATP] 100 µM
  remaining activity at 0.1 µM: 100%
  remaining activity at 0.5 µM: 73.4%
[9]; CDK2/cyclin A, [ATP] 100 µM
  remaining activity at 0.1 µM: 97.7%
  remaining activity at 0.5 µM: 75.7%
[9]; CDK2/cyclin E, [ATP] 5 µM
  remaining activity at 0.1 µM: 90.3%
  remaining activity at 0.5 µM: 83.3%
[9]; CDK2/cyclin O, [ATP] 30 µM
  remaining activity at 0.1 µM: 88.6%
  remaining activity at 0.5 µM: 84.7%
[10]; [17]
  remaining activity at 0.1 µM: 96.7%
[10]; [18]
  remaining activity at 0.5 µM: 113%
[11]; [17]
  remaining activity at 0.1 µM: 43.9%
[11]; [18]
  remaining activity at 0.5 µM: 18%
[12]; [17]
  remaining activity at 0.1 µM: 98.4%
[12]; [18]
  remaining activity at 0.5 µM: 107%
[13]; [17]
  remaining activity at 0.1 µM: 91.8%
[13]; [18]
  remaining activity at 0.5 µM: 104%
[14]; [17]
  remaining activity at 0.1 µM: 62.3%
[14]; [18]
  remaining activity at 0.5 µM: 16.6%
[15]; [17]
  remaining activity at 0.1 µM: 108%
[15]; [18]
  remaining activity at 0.5 µM: 115%
[16]; [17]
  remaining activity at 0.1 µM: 93.4%
[16]; [18]
  remaining activity at 0.5 µM: 96.2%

## O=C(c1cccc(Cl)c1F)N1CCN(Cc2cccc(Nc3nccs3)n2)CC1 [MK-8745]
[1]; 500 nM
  % Enzyme Activity (relative to DMSO controls): 75.68%
[1]; [18]
  remaining activity at 0.5 µM: 79%
[2]; 500 nM
  % Enzyme Activity (relative to DMSO controls): 94.88%
[2]; [18]
  remaining activity at 0.5 µM: 96.1%
[3]; 500 nM
  % Enzyme Activity (relative to DMSO controls): 90.99%
[3]; [18]
  remaining activity at 0.5 µM: 93.4%
[4]; 500 nM
  % Enzyme Activity (relative to DMSO controls): 107.37%
[4]; [18]
  remaining activity at 0.5 µM: 107%
[5]
  % Enzyme Activity (relative to DMSO controls): 91.78%
  remaining activity at 0.5 µM: 93.2%
[6]; 500 nM
  % Enzyme Activity (relative to DMSO controls): 8.70%
[6]; [18]
  remaining activity at 0.5 µM: 9.04%
[7]; 500 nM
  % Enzyme Activity (relative to DMSO controls): 93.77%
[7]; [18]
  remaining activity at 0.5 µM: 95.9%
[8]; 500 nM
  % Enzyme Activity (relative to DMSO controls): 13.45%
[8]; [18]
  remaining activity at 0.5 µM: 13.8%
[9]; CDK2/Cyclin A1, [ATP] 100 µM
  % Enzyme Activity (relative to DMSO controls): 75.87%
  remaining activity at 0.5 µM: 79.6%
[9]; CDK2/cyclin A, [ATP] 100 µM
  % Enzyme Activity (relative to DMSO controls): 83.95%
  remaining activity at 0.5 µM: 85.1%
[9]; CDK2/cyclin E, [ATP] 5 µM
  % Enzyme Activity (relative to DMSO controls): 85.62%
  remaining activity at 0.5 µM: 86.3%
[9]; CDK2/cyclin O, [ATP] 30 µM
  % Enzyme Activity (relative to DMSO controls): 90.54%
  remaining activity at 0.5 µM: 90.6%
[10]; 500 nM
  % Enzyme Activity (relative to DMSO controls): 103.20%
[10]; [18]
  remaining activity at 0.5 µM: 107%
[11]; 500 nM
  % Enzyme Activity (relative to DMSO controls): 57.68%
[11]; [18]
  remaining activity at 0.5 µM: 57.8%
[12]; 500 nM
  % Enzyme Activity (relative to DMSO controls): 110.19%
[12]; [18]
  remaining activity at 0.5 µM: 111%
[13]; 500 nM
  % Enzyme Activity (relative to DMSO controls): 152.58%
[13]; [18]
  remaining activity at 0.5 µM: 157%
[14]; 500 nM
  % Enzyme Activity (relative to DMSO controls): 50.49%
[14]; [18]
  remaining activity at 0.5 µM: 53%
[15]; 500 nM
  % Enzyme Activity (relative to DMSO controls): 102.40%
[15]; [18]
  remaining activity at 0.5 µM: 103%
[16]; 500 nM
  % Enzyme Activity (relative to DMSO controls): 96.32%
[16]; [18]
  remaining activity at 0.5 µM: 97%
